# Data taken from paper PMC11851430, “Workflow for E3 Ligase Ligand Validation for PROTAC Development” (ACS Chemical Biology, 2025).
# Experiments:
# Experiment in all cases: DSF assay
# Format in all cases: binding
# Conditions in all cases: 20 µM compound
# ABL1A = molecular target: T1, ABL1A (Homo sapiens, UniProt P00519)
# T1 construct: purchased in-house DSF panel (SGC-style construct names; the trailing A/B is a construct suffix)
# T1 sequence (P00519 229-512): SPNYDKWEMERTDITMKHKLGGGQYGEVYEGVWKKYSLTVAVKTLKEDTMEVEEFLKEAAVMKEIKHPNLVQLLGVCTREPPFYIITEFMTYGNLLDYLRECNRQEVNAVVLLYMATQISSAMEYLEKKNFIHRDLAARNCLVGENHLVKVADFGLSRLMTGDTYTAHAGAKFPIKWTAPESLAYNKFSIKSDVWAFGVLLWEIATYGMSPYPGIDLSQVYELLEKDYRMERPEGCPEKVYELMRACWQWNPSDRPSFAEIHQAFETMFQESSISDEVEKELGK
# BRAFA = molecular target: T2, BRAFA (Homo sapiens, UniProt P15056)
# T2 construct: purchased in-house DSF panel (SGC-style construct names; the trailing A/B is a construct suffix)
# T2 sequence (P15056 448-723): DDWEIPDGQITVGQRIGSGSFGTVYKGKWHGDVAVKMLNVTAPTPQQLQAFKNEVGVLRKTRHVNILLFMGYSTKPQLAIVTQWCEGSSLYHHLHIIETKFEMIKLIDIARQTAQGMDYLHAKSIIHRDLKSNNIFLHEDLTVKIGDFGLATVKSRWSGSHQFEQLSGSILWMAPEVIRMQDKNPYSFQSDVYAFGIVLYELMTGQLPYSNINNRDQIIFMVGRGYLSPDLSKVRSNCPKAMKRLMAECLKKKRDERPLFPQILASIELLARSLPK
# CSNK2A2A = molecular target: T3, CSNK2A2A (Homo sapiens, UniProt P19784)
# T3 construct: purchased in-house DSF panel (SGC-style construct names; the trailing A/B is a construct suffix)
# T3 sequence (P19784 whole entry): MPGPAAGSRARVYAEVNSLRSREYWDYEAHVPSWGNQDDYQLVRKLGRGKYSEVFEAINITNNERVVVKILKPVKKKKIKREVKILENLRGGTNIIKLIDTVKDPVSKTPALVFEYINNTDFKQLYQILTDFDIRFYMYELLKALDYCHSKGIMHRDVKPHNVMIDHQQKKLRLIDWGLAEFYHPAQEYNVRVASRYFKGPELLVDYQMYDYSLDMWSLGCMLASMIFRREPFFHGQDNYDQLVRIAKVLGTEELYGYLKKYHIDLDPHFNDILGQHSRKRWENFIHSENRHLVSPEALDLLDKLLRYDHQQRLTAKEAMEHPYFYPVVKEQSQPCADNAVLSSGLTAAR
# DCAMKL1A = molecular target: T4, DCAMKL1A (Homo sapiens, UniProt O15075)
# T4 construct: purchased in-house DSF panel (SGC-style construct names; the trailing A/B is a construct suffix)
# T4 sequence (O15075 372-649): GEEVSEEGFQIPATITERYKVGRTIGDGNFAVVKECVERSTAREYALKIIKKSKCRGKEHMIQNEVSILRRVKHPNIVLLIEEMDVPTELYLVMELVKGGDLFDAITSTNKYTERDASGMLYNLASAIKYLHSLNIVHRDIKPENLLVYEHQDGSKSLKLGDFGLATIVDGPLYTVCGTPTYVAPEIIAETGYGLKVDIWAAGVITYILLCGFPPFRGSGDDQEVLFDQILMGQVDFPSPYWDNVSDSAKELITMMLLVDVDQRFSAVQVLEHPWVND
# EPHA7A = molecular target: T5, EPHA7A (Homo sapiens, UniProt Q15375)
# T5 construct: purchased in-house DSF panel (SGC-style construct names; the trailing A/B is a construct suffix)
# T5 sequence (Q15375 590-899): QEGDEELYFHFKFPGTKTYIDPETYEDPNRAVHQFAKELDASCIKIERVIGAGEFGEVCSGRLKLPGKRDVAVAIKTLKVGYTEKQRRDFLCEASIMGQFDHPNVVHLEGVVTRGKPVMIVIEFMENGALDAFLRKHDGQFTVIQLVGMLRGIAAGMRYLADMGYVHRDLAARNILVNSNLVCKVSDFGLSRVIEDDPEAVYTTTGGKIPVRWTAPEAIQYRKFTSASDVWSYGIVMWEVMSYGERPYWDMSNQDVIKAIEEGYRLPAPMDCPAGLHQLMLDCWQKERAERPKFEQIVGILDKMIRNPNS
# FGFR1B = molecular target: T6, FGFR1B (Homo sapiens, UniProt P11362)
# T6 construct: purchased in-house DSF panel (SGC-style construct names; the trailing A/B is a construct suffix)
# T6 sequence (P11362 456-767): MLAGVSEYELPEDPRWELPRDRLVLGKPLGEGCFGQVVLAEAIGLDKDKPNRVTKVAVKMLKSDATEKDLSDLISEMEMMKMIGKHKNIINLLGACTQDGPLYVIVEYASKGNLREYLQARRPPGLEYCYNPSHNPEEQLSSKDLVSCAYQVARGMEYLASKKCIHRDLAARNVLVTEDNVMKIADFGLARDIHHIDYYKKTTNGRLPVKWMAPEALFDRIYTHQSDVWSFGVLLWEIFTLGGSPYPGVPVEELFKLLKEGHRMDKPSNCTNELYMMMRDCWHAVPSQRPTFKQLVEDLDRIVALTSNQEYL
# MAPK14A = molecular target: T7, MAPK14A (Homo sapiens, UniProt Q16539)
# T7 construct: purchased in-house DSF panel (SGC-style construct names; the trailing A/B is a construct suffix)
# T7 sequence (Q16539 whole entry): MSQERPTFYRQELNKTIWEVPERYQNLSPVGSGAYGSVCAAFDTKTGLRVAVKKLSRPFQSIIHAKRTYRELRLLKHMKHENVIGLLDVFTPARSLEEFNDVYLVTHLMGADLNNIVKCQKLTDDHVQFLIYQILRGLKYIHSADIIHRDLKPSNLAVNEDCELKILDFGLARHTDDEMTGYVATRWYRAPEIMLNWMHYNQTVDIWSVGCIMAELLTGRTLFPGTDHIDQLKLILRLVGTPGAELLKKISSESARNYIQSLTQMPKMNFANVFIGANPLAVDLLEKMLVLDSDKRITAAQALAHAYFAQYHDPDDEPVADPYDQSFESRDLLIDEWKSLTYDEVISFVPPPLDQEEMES
# MAPK15A = molecular target: T8, MAPK15A (Homo sapiens, UniProt Q8TD08)
# T8 construct: purchased in-house DSF panel (SGC-style construct names; the trailing A/B is a construct suffix)
# T8 sequence (Q8TD08 1-345): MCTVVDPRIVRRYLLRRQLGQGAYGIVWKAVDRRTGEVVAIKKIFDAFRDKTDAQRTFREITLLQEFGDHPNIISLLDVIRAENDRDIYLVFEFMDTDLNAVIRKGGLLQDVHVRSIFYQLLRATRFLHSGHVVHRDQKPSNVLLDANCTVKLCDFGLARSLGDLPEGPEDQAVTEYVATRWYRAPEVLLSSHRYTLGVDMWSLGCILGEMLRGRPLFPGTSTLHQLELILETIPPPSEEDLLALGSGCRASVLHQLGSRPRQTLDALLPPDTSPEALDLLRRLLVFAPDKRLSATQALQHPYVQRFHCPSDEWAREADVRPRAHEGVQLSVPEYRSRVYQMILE
# MARK4A = molecular target: T9, MARK4A (Homo sapiens, UniProt Q96L34)
# T9 construct: purchased in-house DSF panel (SGC-style construct names; the trailing A/B is a construct suffix)
# T9 sequence (Q96L34 59-310): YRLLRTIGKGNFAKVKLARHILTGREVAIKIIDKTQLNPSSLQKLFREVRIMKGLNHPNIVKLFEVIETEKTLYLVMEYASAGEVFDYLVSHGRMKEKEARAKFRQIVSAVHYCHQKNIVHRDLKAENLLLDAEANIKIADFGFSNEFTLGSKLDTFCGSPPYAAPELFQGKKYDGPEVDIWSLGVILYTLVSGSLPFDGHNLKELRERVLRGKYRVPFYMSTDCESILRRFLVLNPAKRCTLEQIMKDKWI
# PAK1A = molecular target: T10, PAK1A (Homo sapiens, UniProt Q13153)
# T10 construct: purchased in-house DSF panel (SGC-style construct names; the trailing A/B is a construct suffix)
# T10 sequence (Q13153 249-545): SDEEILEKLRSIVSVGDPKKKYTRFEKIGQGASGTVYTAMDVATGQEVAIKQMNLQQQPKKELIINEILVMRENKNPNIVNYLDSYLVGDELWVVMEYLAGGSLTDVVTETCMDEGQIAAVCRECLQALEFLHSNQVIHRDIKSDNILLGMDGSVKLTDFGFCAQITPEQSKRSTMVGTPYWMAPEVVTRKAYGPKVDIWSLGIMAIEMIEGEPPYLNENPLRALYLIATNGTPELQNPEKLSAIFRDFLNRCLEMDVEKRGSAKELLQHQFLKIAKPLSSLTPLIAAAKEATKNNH
# PAK4A = molecular target: T11, PAK4A (Homo sapiens, UniProt O96013)
# T11 construct: purchased in-house DSF panel (SGC-style construct names; the trailing A/B is a construct suffix)
# T11 sequence (O96013 291-591): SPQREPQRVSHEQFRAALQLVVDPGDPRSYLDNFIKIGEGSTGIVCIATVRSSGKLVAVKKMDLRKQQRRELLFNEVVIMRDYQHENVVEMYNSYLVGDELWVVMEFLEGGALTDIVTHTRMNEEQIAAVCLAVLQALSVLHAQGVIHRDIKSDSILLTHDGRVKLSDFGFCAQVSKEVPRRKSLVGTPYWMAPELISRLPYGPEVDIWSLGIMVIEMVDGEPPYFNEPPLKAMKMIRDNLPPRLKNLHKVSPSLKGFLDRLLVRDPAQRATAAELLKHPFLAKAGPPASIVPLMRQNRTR
# PLK4A = molecular target: T12, PLK4A (Homo sapiens, UniProt O00444)
# T12 construct: purchased in-house DSF panel (SGC-style construct names; the trailing A/B is a construct suffix)
# T12 sequence (O00444 2-275): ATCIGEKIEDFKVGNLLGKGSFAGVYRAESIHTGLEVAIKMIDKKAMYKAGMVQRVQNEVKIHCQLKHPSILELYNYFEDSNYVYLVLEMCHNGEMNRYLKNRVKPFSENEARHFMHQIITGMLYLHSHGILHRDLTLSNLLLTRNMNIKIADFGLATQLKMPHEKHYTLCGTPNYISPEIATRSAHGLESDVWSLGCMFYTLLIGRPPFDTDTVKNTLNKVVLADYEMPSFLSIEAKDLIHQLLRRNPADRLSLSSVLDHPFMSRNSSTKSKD
# STK10A = molecular target: T13, STK10A (Homo sapiens, UniProt O94804)
# T13 construct: purchased in-house DSF panel (SGC-style construct names; the trailing A/B is a construct suffix)
# T13 sequence (O94804 18-317): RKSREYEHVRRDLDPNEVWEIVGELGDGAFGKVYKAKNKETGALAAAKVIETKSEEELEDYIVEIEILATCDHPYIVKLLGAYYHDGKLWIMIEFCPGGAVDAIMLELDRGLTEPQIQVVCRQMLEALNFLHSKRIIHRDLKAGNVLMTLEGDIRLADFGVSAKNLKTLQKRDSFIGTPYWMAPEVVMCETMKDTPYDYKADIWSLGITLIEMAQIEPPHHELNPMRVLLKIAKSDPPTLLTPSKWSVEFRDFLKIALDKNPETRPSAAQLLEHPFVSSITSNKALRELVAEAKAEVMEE
# STK3A = molecular target: T14, STK3A (Homo sapiens, UniProt Q13188)
# T14 construct: purchased in-house DSF panel (SGC-style construct names; the trailing A/B is a construct suffix)
# T14 sequence (Q13188 16-313): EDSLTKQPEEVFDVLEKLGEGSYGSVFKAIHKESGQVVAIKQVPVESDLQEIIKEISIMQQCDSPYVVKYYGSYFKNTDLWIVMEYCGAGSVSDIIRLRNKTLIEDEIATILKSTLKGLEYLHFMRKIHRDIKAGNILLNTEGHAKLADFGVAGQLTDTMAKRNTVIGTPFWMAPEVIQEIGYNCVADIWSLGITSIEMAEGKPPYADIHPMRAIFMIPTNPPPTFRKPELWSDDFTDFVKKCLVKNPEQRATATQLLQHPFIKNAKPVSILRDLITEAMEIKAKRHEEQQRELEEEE
SMILES,ΔTm at 20 µM (ABL1A) [°C],ΔTm at 20 µM (BRAFA) [°C],ΔTm at 20 µM (CSNK2A2A) [°C],ΔTm at 20 µM (DCAMKL1A) [°C],ΔTm at 20 µM (EPHA7A) [°C],ΔTm at 20 µM (FGFR1B) [°C],ΔTm at 20 µM (MAPK14A) [°C],ΔTm at 20 µM (MAPK15A) [°C],ΔTm at 20 µM (MARK4A) [°C],ΔTm at 20 µM (PAK1A) [°C],ΔTm at 20 µM (PAK4A) [°C],ΔTm at 20 µM (PLK4A) [°C],ΔTm at 20 µM (STK10A) [°C],ΔTm at 20 µM (STK3A) [°C]
CC(C)(C)OC(=O)NCCOCCOCCOCCOCCC(=O)N1CCN(c2cc(Nc3cc(C4CC4)[nH]n3)nc(Nc3ccc(CC#N)cc3)n2)CC1 [4-L],11.3,1.63,8.28,0.22,1.51,6.61,0.05,16.4,6.16,0.92,11,16.1,11.8,8.18
CC(C)(C)OC(=O)NCCCOCCOCCOCCCNC(=O)c1cc(Nc2cc(C3CC3)[nH]n2)nc(Nc2ccc(CC#N)cc2)n1 [5-L],6.31,2.09,6.77,4.7,2.65,3.47,0.52,17,3.21,-0.24,9.26,11.6,7.84,8.81
CCOC(=O)c1cc(Nc2cc(C3CC3)[nH]n2)nc(Nc2ccc(CC#N)cc2)n1 [compound 5],7.27,1.72,7.92,0.68,3.39,5.22,0.11,14.8,6.15,1.05,7.87,13.2,9.37,9.87
